Key:
human URAT1 = target: T1, human URAT1 (Homo sapiens, UniProt Q96S37); assay: Test for inhibition of uric acid transport using human URAT1-expressing cells;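 also: three stars up to 0.2 µM two stars 0.2-2 µM one star 2-20 µM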; format: cell-based; conditions: HEK 293 cells expressing human URAT1; 14C-labeled uric acid 25 μM; uptake 37° C. for 5 min
T1 construct: Full-length cDNA of human URAT1 (hURAT1)
T1 sequence (Q96S37 1-553): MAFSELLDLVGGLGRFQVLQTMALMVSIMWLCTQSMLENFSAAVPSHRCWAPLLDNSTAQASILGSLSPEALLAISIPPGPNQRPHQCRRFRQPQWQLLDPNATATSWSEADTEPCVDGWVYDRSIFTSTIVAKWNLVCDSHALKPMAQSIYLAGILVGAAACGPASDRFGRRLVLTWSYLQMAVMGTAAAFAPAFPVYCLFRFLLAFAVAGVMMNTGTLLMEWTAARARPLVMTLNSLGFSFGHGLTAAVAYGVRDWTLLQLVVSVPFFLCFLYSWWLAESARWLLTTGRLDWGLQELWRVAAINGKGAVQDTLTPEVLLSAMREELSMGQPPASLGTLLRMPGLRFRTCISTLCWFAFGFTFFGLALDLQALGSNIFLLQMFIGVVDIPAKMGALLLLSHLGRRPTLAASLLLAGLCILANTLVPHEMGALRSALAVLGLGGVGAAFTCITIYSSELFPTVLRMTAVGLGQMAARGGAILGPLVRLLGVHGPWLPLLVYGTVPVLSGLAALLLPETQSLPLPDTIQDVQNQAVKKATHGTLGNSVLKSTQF
Summary of the method: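 HEK293 cells stably transfected with full-length hURAT1, preincubated 10 min at 37 °C in HBSS with NaCl replaced by Na gluconate. Uptake of 25 μM ¹⁴C-uric acid with compound ran 5 min at 37 °C, then scintillation counting. IC50 derived from % of DMSO-control URAT1-specific uptake.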

Cebus apella = assay: Test for drug efficacy in Cebus apella (uric acid excretion rate); format: in vivo; conditions: 3 mg/kg to 30 mg/kg in 0.5% methylcellulose into stomach via the nasal cavity, up to 24 hours
Procedure: A test compound (3 mg/kg to 30 mg/kg) prepared by suspending in a 0.5% methylcellulose solution was administered to Cebus apella into stomach via the nasal cavity using a disposable catheter and a syringe barrel. Blood samples were taken before administration and 30 minutes, 1 hour, 2 hours, 4 hours, 8 hours, 12 hours, and 24 hours after administration; and urine samples were collected for the time intervals of immediately to 4 hours after administration, from 4 hours to 8 hours after administration, from 8 hours to 16 hours after administration, and from 16 hours to 24 hours after administration. Concentrations of uric acid and creatinine in the blood and urine samples collected were measured by an automatic analyzer (JEOL Ltd.). Uric acid and creatine were measured using L-type Wako UA.F (Wako Pure Chemicals Industries, Ltd.) and L-type Creatine F (Wako Pure Chemicals Industries, Ltd.) respectively. Uric acid clearance was calculated from the uric acid concentrations in blood and urine and, similarly, creatinine clearance was calculated from the creatinine concentrations.

| SMILES | Inhibitory Activity (IC50 of uric acid transport inhibition) (human URAT1) | uricosuric effect (uric acid excretion rate) (Cebus apella) |
| --- | --- | --- |
| Cc1ccc(C)c(Cn2c(-c3cccnc3)nc(C)c2C(=O)O)c1 [Compound A1, 1-(2,5-dimehylbenzyl)-4-methyl-2-(pyridin-3-yl)-1H-imidazole-5-carboxylic acid] | * * | excellent uricosuric effect was confirmed |
| Cc1nc(-c2cccnc2)n(Cc2cccc3ccccc23)c1C(=O)O [Compound A2, 4-methyl-1-(naphthalen-1-ylmethyl)-2-(pyridin-3-yl)-1H-imidazole-5-carboxylic acid] | * * | excellent uricosuric effect was confirmed |
| Cc1nc(-c2cccnc2)n(Cc2csc3cccc(Cl)c23)c1C(=O)O [Compound A7, 1-((4-chlorobenzo[b]thiophen-3-yl)methyl)-4-methyl-2-(pyridin-3-yl)-1H-imidazole-5-carboxylic acid] | * * | excellent uricosuric effect was confirmed |
| Cc1nc(-c2cccnc2)n(Cc2cc(Cl)ccc2Cl)c1C(=O)O [Compound A13, 1-(2,5-dichlorobenzyl)-2-(pyridin-3-yl)-4-methyl-1H-imidazole-5-carboxylic acid] | * * * | excellent uricosuric effect was confirmed |
| CCc1nc(-c2cccnc2)n(Cc2cc(Cl)ccc2Cl)c1C(=O)O [Compound A14, 1-(2,5-dichlorobenzyl)-4-ethyl-2-(pyridin-3-yl)-1H-imidazole-5-carboxylic acid] | * * * | excellent uricosuric effect was confirmed |
| O=C(O)c1c(C2CC2)nc(-c2cccnc2)n1Cc1cc(Cl)ccc1Cl [Compound A15, 4-cyclopropyl-1-(2,5-dichlorobenzyl)-2-(pyridin-3-yl)-1H-imidazole-5-carboxylic acid] | * * * | excellent uricosuric effect was confirmed |
| O=C(O)c1c(C(F)(F)F)nc(-c2cccnc2)n1Cc1cc(Cl)ccc1Cl [Compound A19, 1-(2,5-dichlorobenzyl)-2-(pyridin-3-yl)-4-(trifluoromethyl)-1H-imidazole-5-carboxylic acid] | * * * | excellent uricosuric effect was confirmed |
| CC(C)c1nc(-c2cccnc2)n(Cc2cc(Cl)ccc2Cl)c1C(=O)O [Compound A26, 1-(2,5-dichlorobenzyl)-4-isopropyl-2-(pyridin-3-yl)-1H-imidazole-5-carboxylic acid] | * * * | excellent uricosuric effect was confirmed |
| Cc1nc(-c2cccnc2)n(Cc2cccc3ccsc23)c1C(=O)O [Compound A81, 1-(benzo[b]thiophen-7-ylmethyl)-4-methyl-2-(pyridin-3-yl)-1H-imidazole-5-carboxylic acid] | * * | excellent uricosuric effect was confirmed |
| Cc1nc(-c2cncc(F)c2)n(Cc2cccc3ccccc23)c1C(=O)O [Compound A119, 2-(5-fluoropyridin-3-yl)-4-methyl-1-(naphthalen-1-ylmethyl)-1H-imidazole-5-carboxylic acid] | * * | excellent uricosuric effect was confirmed |
| Cc1nc(-c2cncc(Cl)c2)n(Cc2cccc3ccccc23)c1C(=O)O [Compound A121, 2-(5-chloropyridin-3-yl)-4-methyl-1-(naphthalen-1-ylmethyl)-1H-imidazole-5-carboxylic acid] | * * | excellent uricosuric effect was confirmed |
| Cc1nc(-c2cncc(F)c2)n(Cc2cc(Cl)ccc2Cl)c1C(=O)O [Compound A134, 1-(2,5-dichlorobenzyl)-2-(5-fluoropyridin-3-yl)-4-methyl-1H-imidazole-5-carboxylic acid] | * * * | excellent uricosuric effect was confirmed |
| Cc1nc(-c2cncc(Cl)c2)n(Cc2cc(Cl)ccc2Cl)c1C(=O)O [Compound A135, 2-(5-chloropyridin-3-yl)-1-(2,5-dichlorobenzyl)-4-methyl-1H-imidazole-5-carboxylic acid] | * * * | excellent uricosuric effect was confirmed |
| O=C(O)c1c(C(F)(F)F)nc(-c2cncc(Cl)c2)n1Cc1cc(Cl)ccc1Cl [Compound A137, 2-(5-chloropyridin-3-yl)-1-(2,5-dichlorobenzyl)-4-(trifluoromethyl)-1H-imidazole-5-carboxylic acid] | * * * | excellent uricosuric effect was confirmed |
| O=C(NS(=O)(=O)C1CC1)c1ccc(-c2cccnc2)n1Cc1cccc2ccccc12 [Compound B25, N-(cyclopropylsulfonyl)-1-(naphthalen-1-ylmethyl)-2-(pyridin-3-yl)-1H-pyrrole-5-carboxamide] | * * * |  |
| CS(=O)(=O)NC(=O)c1ccc(-c2cncc(F)c2)n1Cc1cc(Cl)ccc1Cl [Compound B26, 1-(2,5-dichlorobenzyl)-2-(5-fluoropyridin-3-yl)-N-(methylsulfonyl)-1H-pyrrole-5-carboxamide] | * * * |  |
| O=C(NS(=O)(=O)C1CC1)c1ccc(-c2cncc(F)c2)n1Cc1cc(Cl)ccc1Cl [Compound B27, N-(cyclopropylsulfonyl)-1-(2,5-dichlorobenzyl)-2-(5-fluoropyridin-3-yl)-1H-pyrrole-5-carboxamide] | * * * |  |
| CS(=O)(=O)NC(=O)c1ccc(-c2cccnc2)n1Cc1cc(Cl)ccc1Cl [Compound B28, 1-(2,5-dichlorobenzyl)-N-(methylsulfonyl)-2-(pyridin-3-yl)-1H-pyrrole-5-carboxamide] | * * * |  |
| CS(=O)(=O)NC(=O)c1ccc(-c2cncc(Cl)c2)n1Cc1cc(Cl)ccc1Cl [Compound B29, 2-(5-chloropyridin-3-yl)-1-(2,5-dichlorobenzyl)-N-(methylsulfonyl)-1H-pyrrole-5-carboxamide] | * * * |  |
| O=C(NS(=O)(=O)C1CC1)c1ccc(-c2cncc(Cl)c2)n1Cc1cc(Cl)ccc1Cl [Compound B30, 2-(5-chloropyridin-3-yl)-N-(cyclopropylsulfonyl)-1-(2,5-dichlorobenzyl)-1H-pyrrole-5-carboxamide] | * * * |  |
| O=C(NS(=O)(=O)C1CC1)c1ccc(-c2cccnc2)n1Cc1cc(Cl)ccc1Cl [Compound B31, N-(cyclopropylsulfonyl)-1-(2,5-dichlorobenzyl)-2-(pyridin-3-yl)-1H-pyrrole-5-carboxamide] | * * * |  |
| Cc1cncc(-c2ccc(C(=O)NS(=O)(=O)C3CC3)n2Cc2cc(Cl)ccc2Cl)c1 [Compound B32, N-(cyclopropylsulfonyl)-1-(2,5-dichlorobenzyl)-2-(5-methylpyridin-3-yl)-1H-pyrrole-5-carboxamide] | * * * |  |
| O=C(O)/C=C/c1ccc(-c2cccnc2)n1Cc1cccc2ccccc12 [Compound B33, (E)-3-(1-(naphthalen-1-ylmethyl)-2-(pyridin-3-yl)-1H-pyrrole-5-yl)acrylic acid] | * * * |  |
| Cc1cncc(-c2ccc(/C=C/C(=O)O)n2Cc2cc(Cl)ccc2Cl)c1 [Compound B34, (E)-3-(1-(2,5-dichlorobenzyl)-2-(5-methylpyridin-3-yl)-1H-pyrrol-5-yl)acrylic acid] | * * * |  |
| O=C(O)/C=C/c1ccc(-c2cncc(F)c2)n1Cc1cc(Cl)ccc1Cl [Compound B35, (E)-3-(1-(2,5-dichlorobenzyl)-2-(5-fluoropyridin-3-yl)-1H-pyrrol-5-yl)acrylic acid] | * * * |  |

— patent publication US9637469B2, “Pyridine derivative” (Teijin Pharma Limited, priority 2012, dated 2017)
